Reference: the supplement of paper PMC8671470

Tests used:
Conditions in all cases: 72 h
HL-60 [1] = system: HL-60
In short: (§1)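 Fifteen myeloid leukaemia cell lines were seeded in RPMI 1640 at a density titrated to the linear growth range. Each line went into 384-well plates with compounds acoustically pre-printed at five tenfold doses from 1 to 10,000 nM, in duplicate, and was incubated for 72 h at 37 °C with 5% CO2. Luminescent ATP viability was normalised to vehicle and to a positive control at 10 µM. The IC50 came from four-parameter log-logistic dose–response fits.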

KCL-22 [2] = system: KCL-22
In short: as §1

KG-1 [3] = system: KG-1
In short: as §1

ML-2 [4] = system: ML-2
In short: as §1

NOMO-1 [5] = system: NOMO-1
In short: as §1

HL-60 [6] = experiment: cell viability (% survival relative to DMSO control); higher = less cytotoxic
In short: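 For each screen, HL-60 cells in RPMI 1640 with 10% FBS carried either DMSO or 100 nM of one of three metabolic inhibitors while the full library was applied at five tenfold concentrations, 1–10,000 nM, in duplicate. Plates were 384-well and were kept 72 h at 37 °C, 5% CO2. Viability, measured by CellTiter-Glo, was normalised to wells with DMSO and with 10 μM proteasome inhibitor. Where area under the curve appears, it was fitted by four-parameter log-logistic models in drc and PharmacoGx.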

BV-173 = experiment: cell viability (% survival relative to DMSO control, bortezomib = 0%); higher = less cytotoxic
In short: (§2)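 Seeding density for each of the 10 AML and 5 CML cell lines was titrated to the linear growth range. Cells went into 384-well plates pre-printed in duplicate with compounds at 1, 10, 100, 1000 or 10000 nM and were held for 72 h at 37 °C with 5% CO2. CellTiter-Glo luminescence then provided the readout. Percent survival is expressed relative to vehicle at 100% and a 10 µM positive control at 0%, averaged over duplicates.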

HEL = experiment: as above
In short: as §2

HL-60 [7] = experiment: as above
In short: as §2

K-562 = experiment: as above
In short: as §2

KCL-22 [8] = experiment: as above
In short: as §2

KG-1 [9] = experiment: as above
In short: as §2

KU-812 = experiment: as above
In short: as §2

LAMA-84 = experiment: as above
In short: as §2

ML-2 [10] = experiment: as above
In short: as §2

MOLM-13 = experiment: as above
In short: as §2

MV4-11 = experiment: as above
In short: as §2

Mono-Mac-6 = experiment: as above
In short: as §2

NOMO-1 [11] = experiment: as above
In short: as §2

SHI-1 = experiment: as above
In short: as §2

THP-1 = experiment: as above
In short: as §2

O=c1c(-c2ccc(O)cc2)coc2cc(O[C@@H]3O[C@H](CO)[C@@H](O)[C@H](O)[C@H]3O)ccc12 [Daidzin]
Conditions | IC50 (cell viability) [µM]
HL-60 [1] | > 10
KCL-22 [2] | > 10
KG-1 [3] | > 10
ML-2 [4] | > 10
NOMO-1 [5] | > 10

cell viability [%], HL-60 [6]
Conditions | 0.001 µM | 0.01 µM | 0.1 µM | 1 µM | 10 µM
co-treatment: AZD3965 100 nM | 94.4 | 104 | 102 | 84.8 | 107
co-treatment: DMSO vehicle | 96.2 | 102 | 101.7 | 98.92 | 99.7
co-treatment: GSK2194069 100 nM | 96.5 | 105 | 102 | 98.7 | 101
co-treatment: pictilisib 100 nM | 94 | 103 | 105 | 67.6 | 98.5

cell viability [%]
Conditions | 1 nM | 10 nM | 100 nM | 1000 nM | 10000 nM
BV-173 | 94 | 87.4 | 92.4 | 125 | 91.8
HEL | 93 | 93.7 | 107 | 105 | 102
HL-60 [7] | 107 | 99.6 | 100 | 93.9 | 92.7
K-562 | 92.1 | 98.9 | 98.5 | 111 | 106
KCL-22 [8] | 88.6 | 98.9 | 103 | 109 | 111
KG-1 [9] | 99 | 96.6 | 100 | 97.6 | 98.6
KU-812 | 90.9 | 93.6 | 100 | 99.5 | 87.5
LAMA-84 | 102 | 91 | 96.8 | 99.2 | 97.9
ML-2 [10] | 103 | 90.1 | 95.8 | 112 | 97.8
MOLM-13 | 83.9 | 107 | 105 | 99.8 | 99.3
MV4-11 | 91.6 | 84 | 106 | 133 | 98.8
Mono-Mac-6 | 90.8 | 88.2 | 94.6 | 107 | 83.2
NOMO-1 [11] | 93.4 | 99.7 | 99.4 | 101 | 103
SHI-1 | 93.7 | 106 | 108 | 107 | 103
THP-1 | 97.8 | 98.5 | 97.5 | 106 | 95.4

CCn1c(=Cc2cccc[n+]2CC)sc(=C2Sc3ccccc3N2C)c1=O [MKT 077]
Conditions | IC50 (cell viability) [µM]
HL-60 [1] | 4.45
KCL-22 [2] | > 10
KG-1 [3] | > 10
ML-2 [4] | > 10
NOMO-1 [5] | > 10

cell viability [%], HL-60 [6]
Conditions | 0.001 µM | 0.01 µM | 0.1 µM | 1 µM | 10 µM
co-treatment: AZD3965 100 nM | 95.2 | 102 | 97.3 | 88.22 | 97.7
co-treatment: DMSO vehicle | 102 | 105 | 97.35 | 100.14 | 106
co-treatment: GSK2194069 100 nM | 92 | 104 | 96 | 76.1 | 73.5
co-treatment: pictilisib 100 nM | 95.6 | 113.3 | 99.2 | 93.3 | 110

cell viability [%]
Conditions | 1 nM | 10 nM | 100 nM | 1000 nM | 10000 nM
BV-173 | 107 | 108 | 102 | 95.2 | 83.4
HEL | 117 | 87 | 95.7 | 105 | 125
HL-60 [7] | 101 | 84.5 | 101 | 136 | 2.97
K-562 | 109 | 88.1 | 103 | 108 | 1.35
KCL-22 [8] | 106 | 98.5 | 90 | 103 | 107
KG-1 [9] | 99 | 103 | 138 | 102 | 79.3
KU-812 | 101 | 103 | 107 | 98.3 | 61.8
LAMA-84 | 105 | 94.7 | 114 | 104 | 71.6
ML-2 [10] | 91.7 | 98 | 106 | 102 | 101
MOLM-13 | 115 | 108 | 119 | 115 | 0.148
MV4-11 | 113 | 99.9 | 109 | 104 | 0.22
Mono-Mac-6 | 100 | 110 | 112 | 102 | 87.8
NOMO-1 [11] | 98 | 96.2 | 98.1 | 94 | 95.2
SHI-1 | 95.9 | 98.7 | 97.3 | 98.8 | 2.85
THP-1 | 99.6 | 105 | 108 | 98.2 | 86.1

CN(CCOc1ccc(Cc2sc(O)nc2O)cc1)c1ccccn1 [Rosiglitazone]
Conditions | IC50 (cell viability) [µM]
HL-60 [1] | > 10
KCL-22 [2] | > 10
KG-1 [3] | > 10
ML-2 [4] | > 10
NOMO-1 [5] | > 10

cell viability [%], HL-60 [6]
Conditions | 0.001 µM | 0.01 µM | 0.1 µM | 1 µM | 10 µM
co-treatment: AZD3965 100 nM | 104.4 | 105 | 100 | 105 | 102
co-treatment: DMSO vehicle | 102.4 | 102 | 102 | 102.5 | 99.9
co-treatment: GSK2194069 100 nM | 97.7 | 105 | 98.5 | 105 | 92.5
co-treatment: pictilisib 100 nM | 98.9 | 102 | 96.3 | 98.3 | 89.5

cell viability [%]
Conditions | 1 nM | 10 nM | 100 nM | 1000 nM | 10000 nM
BV-173 | 96.7 | 101 | 81 | 97.7 | 101
HEL | 110 | 110 | 113 | 110 | 91.9
HL-60 [7] | 97.8 | 111 | 107 | 127 | 168
K-562 | 96.6 | 109 | 98.5 | 98.7 | 85.4
KCL-22 [8] | 96.4 | 113 | 110 | 94.2 | 102
KG-1 [9] | 91.4 | 110 | 94.3 | 101 | 91.2
KU-812 | 98.9 | 111 | 92.5 | 95.4 | 90.3
LAMA-84 | 99.3 | 106 | 100 | 95.6 | 97.4
ML-2 [10] | 106 | 108 | 95.6 | 120 | 115
MOLM-13 | 107 | 115 | 118 | 130 | 122
MV4-11 | 107 | 105 | 105 | 95 | 93.5
Mono-Mac-6 | 95.9 | 92.6 | 54.5 | 25.2 | 24.8
NOMO-1 [11] | 109 | 107 | 97.8 | 105 | 102
SHI-1 | 102 | 123 | 111 | 116 | 103
THP-1 | 101 | 101 | 88.6 | 90.6 | 93.5
